pIC50: −log10 of the molar value.
What was measured:
[1] = test system: chick periosteal osteogenesis (CPO) cultures; experiment: Newly synthesized 14C-labeled collagen type I in CPO cultures; type: cell-based
Method: For the purposes of this investigation, the effects of a potent aryl hydrocarbon, TCDD (2,3,7,8-tetrachlorodibenzo-p-dioxin or dioxin) on the early events occurring during osteogenesis were determined. The CPO model traverses a number of phases of osteogenesis. Therefore, it was possible to design temporal or “window” experiments in order to determine the phases of osteogenesis that were sensitive to TCDD and/or resveratrol. […] All cultures were maintained for the entire 6-day period. The compounds were administered over four different temporal phases, as outlined below in the time-line diagram: a) days 0-6; b) days 0-2; c) days 2-4 or d) days 4-6 (Note: all cultures were stopped at 6 days). Results were compared to e) vehicle alone over days 0-6. [drawing 1]
Radiolabeled collagen was measured in CPO cultures incubated with ^14C-glycine (Amersham, 59 mCi/mMole) at a concentration of 10 μci/ml media in each group over days 4-6. The cultures were hydrolyzed in 0.1 ml of 0.1N HCl and vortexed. After 15 minutes, the supernatant was removed and saved in a 2 ml eppendorf tube. The culture was transferred to a 0.5 ml eppendorf tube containing 0.1 ml of pepsin (50 μg/ml in 0.1% glacial acetic acid) for further digestion of labeled collagen. These were maintained in a 15° C. water bath for 5 hours, vortexing the samples every hour. The supernatant was transferred to a new 0.5 ml eppendorf tube and was then lyophilized overnight. The amount of radiolabeled collagen was determined by gel electrophoresis as described hereunder. The lyophilized samples were reconstituted with 0.1 ml of a solution made of 70% sample buffer (10 mM Tris.HCl and 1 mM EDTA, pH 8.0) (Sigma-Aldrich Canada Ltd., Oakville, Canada), 2.5% SDS (Sigma), 5% β-mercaptoethanol (Sigma) and 0.01% bromophenol-blue (Sigma). […]
Fluorography was used to analyze the amount of newly synthesized ^14C-labeled collagen in each sample. […] The intensity of the resultant bands on the film was quantified using a laser densitometer to give a measure of the amount of newly synthesized collagen in each sample.

AhR in SBMC cells = target: T1, AhR in SBMC cells (Rattus norvegicus, UniProt P41738); experiment: Live whole cell (RSBMC) competitive uptake/binding assay with 3H-TCDD
T1 construct: endogenous in cells; host or cells: rat stromal bone marrow cell line (RSBMC / SBMC)
T1 sequence (P41738 10-853): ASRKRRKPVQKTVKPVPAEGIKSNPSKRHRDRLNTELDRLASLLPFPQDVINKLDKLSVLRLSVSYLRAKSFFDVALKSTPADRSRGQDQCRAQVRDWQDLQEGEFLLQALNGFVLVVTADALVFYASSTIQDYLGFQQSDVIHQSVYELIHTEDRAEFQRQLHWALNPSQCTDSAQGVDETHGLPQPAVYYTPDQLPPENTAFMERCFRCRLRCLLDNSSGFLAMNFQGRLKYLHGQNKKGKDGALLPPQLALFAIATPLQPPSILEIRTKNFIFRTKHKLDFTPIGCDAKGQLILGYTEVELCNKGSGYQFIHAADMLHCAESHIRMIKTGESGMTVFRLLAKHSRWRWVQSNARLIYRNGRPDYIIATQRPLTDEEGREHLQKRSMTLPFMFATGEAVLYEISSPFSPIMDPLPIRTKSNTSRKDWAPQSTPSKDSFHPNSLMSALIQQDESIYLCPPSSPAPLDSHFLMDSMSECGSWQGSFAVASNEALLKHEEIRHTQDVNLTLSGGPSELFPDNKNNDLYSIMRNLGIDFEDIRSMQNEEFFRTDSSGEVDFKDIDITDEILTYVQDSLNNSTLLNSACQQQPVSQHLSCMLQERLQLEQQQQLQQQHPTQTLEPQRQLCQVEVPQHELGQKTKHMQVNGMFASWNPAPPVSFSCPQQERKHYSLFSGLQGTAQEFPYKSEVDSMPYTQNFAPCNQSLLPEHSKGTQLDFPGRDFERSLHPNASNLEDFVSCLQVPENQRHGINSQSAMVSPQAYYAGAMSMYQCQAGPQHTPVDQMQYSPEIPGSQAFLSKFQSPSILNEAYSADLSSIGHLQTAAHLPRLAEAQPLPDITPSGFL
Method: The need for preincubation (see below) may also alter competition kinetics in this type of binding assay. Cells were plated at a density of 10,000 per well in Titertek 96-well plates, and left overnight to attach in medium. […] Cells were preincubated with cold drug one hour prior to addition of radiolabeled TCDD (specific activity 33.4 Ci/mmol; Chemsyn Lab, Kansas) (pilot studies having shown that preincubation was required to detect competition). One set of wells was incubated without cold drug to determine total binding. ^3H-TCDD (10,000 cpm/well in a volume of 10 μl) was added and incubated for 4 hours at room temperature. The media were aspirated and the cells washed 4× with 100 μl of PBS. 100 μl of 0.1N sulphuric acid was added and the cells were incubated at 37° C. overnight to break the cells open. 80 μl of the lysate was added to 5 ml of scintillation fluid and counted in a beta counter.

rat bone marrow cultures [2] = experiment: APA in rat bone marrow cultures treated with BaP; type: cell-based; settings: resveratrol (10^−6M) added with BaP
Method: In this experiment, the effects of the aryl hydrocarbon, benzo-a-pyrene (BaP) on the early events occurring during osteogenesis were determined. Ten-day old rat bone marrow cultures were treated with increasing concentrations of BaP. The effect of this treatment was monitored by APA as set out above.

rat bone marrow cultures [3] = experiment: Mineral levels in rat bone marrow cultures treated with BaP; type: cell-based; settings: resveratrol and BaP together
IL-1 Beta = settings: Casper et al. 1999; cited from earlier work

SMILES	decrease in newly synthesized collagen type I levels ([1]; 10^−9M TCDD alone, p>0.05)	pIC50 (AhR in SBMC cells)	concentration reducing 3H-TCDD binding to background levels (AhR in SBMC cells; 1 h preincubation with cold drug, 4 h with 3H-TCDD at room temperature)	newly synthesized collagen type I levels ([1]; 10^−6M resveratrol alone, compared to vehicle)	newly synthesized collagen type I level ([1]; co-treatment with TCDD and resveratrol, versus TCDD alone)	reversal of BaP's inhibitory effect on alkaline phosphatase (rat bone marrow cultures [2])	reversal of BaP effects on mineral levels (rat bone marrow cultures [3]; BaP 10^−8M)	reversal of BaP effects on mineral levels (rat bone marrow cultures [3]; higher concentrations of BaP)	induction of IL-1 Beta by AhR ligands (IL-1 Beta)
Clc1cc2c(cc1Cl)Oc1cc(Cl)c(Cl)cc1O2 [TCDD, 2,3,7,8-tetrachlorodibenzo-p-dioxin]	about 30%	~8.43	33 nM	–	–	–	–	–	–
Oc1ccc(C=Cc2cc(O)cc(O)c2)cc1 [resveratrol, 3,5,4′-trihydroxystilbene]	–	–	–	no effect	not significantly different	reversal of BaP's inhibitory effect	complete reversal	partial reversal	prevent the induction

— US6716883B1, “Composition useful to treat periodontal disease” (priority 1998, dated 2004)
